Experimental data published in patent US9073862B2, “Substituted 2-oxy-quinoline-3-carboxamides as KCNQ2/3 modulators” (Grünenthal GmbH, priority 2010, dated 2015).

How the values were obtained:
[1] = biological target: T1, KCNQ2/3 channels (Homo sapiens, UniProt O43525+O43526); experiment: Fluorescence assay using a voltage sensitive dye (fluorimetry); type: cell-based; details: CHO-K1 cells expressing KCNQ2/3 channels; for Emax: relative to retigabine = 100%, read-out: Fluorimetry % efficacy (retigabine = 100%)
T1 construct: expressed in transfected cells; host or cells: CHO-K1
Method: Method I. Fluorescence Assay Using a Voltage Sensitive Dye (Fluorimetry)
[…] CHO-K1 cells expressing KCNQ2/3 channels are cultivated adherently at 37° C., 5% CO2 and 95% humidity in cell culture bottles (e.g. 80 cm^2 TC flasks, Nunc) with DMEM-high glucose (Sigma Aldrich, D7777) including 10% FCS (PAN Biotech, e.g. 3302-P270521) or alternatively MEM Alpha Medium (1×, liquid, Invitrogen, #22571), 10% fetal calf serum (FCS) (Invitrogen, #10270-106, heat-inactivated) and the necessary selection antibiotics.
Before being sown out for the measurements, the cells are washed with 1×DPBS buffer Ca^2+/Mg^2+-free (e.g. Invitrogen, #14190-094) and detached from the bottom of the culture vessel by using Accutase (PAA Laboratories, #L11-007) (incubation with Accutase for 15 min at 37° C.). The cell number is determined using a CASY™ cell counter (TCC, Schärfe System). Depending on the optimal density for each individual cell line, 20,000-30,000 cells/well/100 μl are seeded onto 96-well Corning™ CellBIND™ assay plates (Flat Clear Bottom Black Polystyrene Microplates, #3340). Freshly seeded cells are then left to settle for one hour at room temperature, followed by incubation for 24 hours at 37° C., 5% CO2 and 95% humidity.
The voltage-sensitive fluorescent dye from the Membrane Potential Assay Kit (Red™ Bulk format part R8123 for FLIPR, MDS Analytical Technologies™) is prepared by dissolving the contents of one vessel Membrane Potential Assay Kit Red Component A in 200 ml of extracellular buffer (ES buffer, 120 mM NaCl, 1 mM KCl, 10 mM HEPES, 2 mM CaCl2, 2 mM MgCl2, 10 mM glucose; pH 7.4). After removal of the nutrient medium, the cells are washed once with 200 μl of ES buffer, then loaded for 45 min at room temperature in 100 μl of dye solution in the dark.
Fluorescence measurements are carried out in a BMG Labtech FLUOstar™, BMG Labtech NOVOstar™ or BMG Labtech POLARstar™ instrument (525 nm excitation, 560 nm emission, Bottom Read mode). After incubation with the dye, 50 μl of the test substances in the desired concentrations, or 50 μl of ES buffer for control purposes, are applied to the wells of the assay plate and incubated for 30 min at room temperature while being shielded from light. The fluorescence intensity of the dye is then measured for 5 min and the fluorescence value F1 of each well is thus determined at a given, constant time. 15 μl of a KCl solution are then added to each well (final concentration of potassium ions 92 mM). The change in fluorescence intensity is subsequently monitored until all the relevant values have been obtained (mainly 5-30 min). At a given time post KCl application, a fluorescence value F2 is determined, in this case at the time of the fluorescence peak.
For calculation, the fluorescence intensity F2 is corrected for the fluorescence intensity F1, and the activity (ΔF/F) of the target compound on the potassium channel is determined as follows:
In order to determine whether a substance has agonistic activity,
[formula] can be related to
[formula] of control wells.
[formula] is determined by adding to the well only the buffer solution instead of the test substance, determining the value F1K of the fluorescence intensity, adding the potassium ions as described above, and measuring a value F2K of the fluorescence intensity. F2K and F1K are then calculated as follows: […]
A substance has an agonistic activity on the potassium channel if
[formula] is greater than
Independently of the comparison of
[formula] it is possible to conclude that a target compound has agonistic activity if
[formula] increases dose dependently.
Calculations of EC50 and IC50 values are carried out with the aid of ‘Prism v4.0’ software (Graph Pad Software™).

[2] = tested on: withdrawal reflex of the rat tail (tail flick) in response to a radiant heat beam; experiment: Low-intensity tail flick test (rat); type: in vivo; details: po, peroral, read-out: Low intensity tail flick, rat, peroral, MPE (dose)
Method: Method II. Low-Intensity Tail Flick Test (Rat)
In the low-intensity tail flick test, the determination of the antinociceptive effect of the compounds according to the invention towards an acute noxious thermal stimulus is carried out by measuring the withdrawal reflex of the rat tail (tail flick) in response to a radiant heat beam (analgesia meter; model 2011 of the company Rhema Labortechnik, Hofheim, Germany) according to the method described by D'Amour and Smith (J. Pharm. Exp. Ther. 72, 74 79 (1941). To this end, the rats were placed in a plexiglas restrainer, and a low-intensity radiant heat beam (48° C.) was focused onto the dorsal surface of the tail root. The stimulus intensity was adjusted to result in a mean pre-drug control withdrawal latency of about 7 s, thus also allowing a supraspinal modulation of the spinally mediated acute nociceptive reflex. A cutoff time of 30 s was applied to avoid tissue damage. Male Sprague-Dawley rats (Janvier, Le Genest St. Isle, Frankreich) with weights of 200-250 g were used. 10 rats were used per group. Before administration of a compound according to the invention, the animals were pre-tested twice in the course of five minutes and the mean of these measurements was calculated as the pre-test mean. The antinociceptive effect was determined at 20, 40 and 60 min after peroral compound administration. The antinociceptive effect was calculated based on the increase in the tail withdrawal latency according to the following formula and is expressed as percentage of the maximum possible effect (MPE [%]): MPE=[(T1−T0)/(T2−T0)]*100
In this, T0 is the control latency time before and T1 the latency time after administration of the compound, T2 is the cutoff time and MPE is the maximum possible effect. Employing variant analysis (repeated measures ANOVA) allowed testing of statistically significant differences between the compounds according to the invention and the vehicle group. The significance level was set to p≦0.05. To determine the dose dependency, the particular compound according to the invention was administered in 3-5 logarithmically increasing doses, including a threshold dose and a maximum effective dose, and the ED50 values were determined with the aid of regression analysis. The ED50 calculation was performed at the time of maximum efficacy (usually 20 min after administration of the compounds).

Structure (SMILES)	EC50 [1] [nM]	Emax [1] [%]	inhibition in vivo at 6.81 mg/kg [2] [%]	inhibition in vivo at 10 mg/kg [2] [%]
CCOc1nc2cc(C(F)(F)F)ccc2c(C)c1C(=O)NCc1ccc(F)c(C)c1 [Example 24, 2-ethoxy-N-[(4-fluoro-3-methyl-phenyl)-methyl]-4-methyl-7-(trifluoromethyl)-quinoline-3-carboxylic acid amide]	53	108	17	
COc1nc2cc(C(F)(F)F)ccc2c(C)c1C(=O)NCCCC(C)(C)C [Example 29, N-(4,4-dimethyl-pentyl)-2-methoxy-4-methyl-7-(trifluoromethyl)-quinoline-3-carboxylic acid amide]	28	244		28
CCOc1nc2cc(C#N)ccc2c(C)c1C(=O)NCc1ccc(F)cc1 [Example 35, 7-cyano-2-ethoxy-N-[(4-fluorophenyl)-methyl]-4-methyl-quinoline-3-carboxylic acid amide]	82	112	32	
Cc1c(C(=O)NCc2cccc(F)c2)c(OCC(F)(F)F)nc2cc(C(F)(F)F)ccc12 [Example 50, N-[(3-fluorophenyl)-methyl]-4-methyl-2-(2,2,2-trifluoro-ethoxy)-7-(trifluoromethyl)-quinoline-3-carboxylic acid amide]	25	108		24
